Experimental data: ChEMBL document CHEMBL1201862, “PubChem BioAssay data set” (2004)
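Grown in 96-well plates, cells were treated for 48 hours with each compound at five concentrations. Insufficient inhibition: endpoint recorded as highest concentration tested. GI50 = concentration required for 50% inhibition of growth.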 Calls of active or inactive are those of the source. Cut-off read from the data, not from the text of the source: active = GI50 up to about 1.1 µM and inactive = higher.

Tests used:
Assay in all cases: DTP human tumour cell line panel, 48 h
SN12C = tested on: SN12C
LOX IMVI = tested on: LOX IMVI
RXF 393 = tested on: RXF 393
PC-3 = tested on: PC-3
UACC-62 = tested on: UACC-62
HOP-92 = tested on: HOP-92
EKVX = tested on: EKVX
OVCAR-3 = tested on: OVCAR-3
NCI-H460 = tested on: NCI-H460
OVCAR-5 = tested on: OVCAR-5
MOLT-4 = tested on: MOLT-4
SW-620 = tested on: SW-620
HCC 2998 = tested on: HCC 2998
CCRF-CEM = tested on: CCRF-CEM
NCI/ADR-RES = tested on: NCI/ADR-RES
SK-MEL-28 = tested on: SK-MEL-28
U-251 = tested on: U-251
NCI-H522 = tested on: NCI-H522
SF-295 = tested on: SF-295
OVCAR-8 = tested on: OVCAR-8

| Compound | GI50 (SN12C) | GI50 (LOX IMVI) | GI50 (RXF 393) | GI50 (PC-3) | GI50 (UACC-62) | GI50 (HOP-92) | GI50 (EKVX) | GI50 (OVCAR-3) | GI50 (NCI-H460) | GI50 (OVCAR-5) | GI50 (MOLT-4) | GI50 (SW-620) | GI50 (HCC 2998) | GI50 (CCRF-CEM) | GI50 (NCI/ADR-RES) | GI50 (SK-MEL-28) | GI50 (U-251) | GI50 (NCI-H522) | GI50 (SF-295) | GI50 (OVCAR-8) |
| --- | --- | --- | --- | --- | --- | --- | --- | --- | --- | --- | --- | --- | --- | --- | --- | --- | --- | --- | --- | --- |
| N#Cc1c(N)c(C#N)c2c(c1-c1ccc(Cl)cc1)COc1ccccc1-2 | 12.4 µM (inactive) | 29.7 µM (inactive) | 15.4 µM (inactive) | 16.8 µM (inactive) | 30.1 µM (inactive) | 15.3 µM (inactive) | 9.14 µM (inactive) | 13.7 µM (inactive) | 30.3 µM (inactive) | 24.9 µM (inactive) | 11.4 µM (inactive) | 32.6 µM (inactive) | 17.4 µM (inactive) | 16.5 µM (inactive) | 20.9 µM (inactive) | 16.5 µM (inactive) | 14.7 µM (inactive) | – | – | – |
| Cc1ccc(Nc2sc(C)cc2C#N)c([N+](=O)[O-])c1 | > 100 µM (inactive) | – | 53.3 µM (inactive) | > 100 µM (inactive) | > 100 µM (inactive) | 88.9 µM (inactive) | > 100 µM (inactive) | > 100 µM (inactive) | > 100 µM (inactive) | > 100 µM (inactive) | > 100 µM (inactive) | > 100 µM (inactive) | > 100 µM (inactive) | 99.8 µM (inactive) | 98.9 µM (inactive) | > 100 µM (inactive) | > 100 µM (inactive) | > 100 µM (inactive) | > 100 µM (inactive) | > 100 µM (inactive) |
| CC(=O)Nc1c(C(=N)C#N)ncn1CCO | > 100 µM (inactive) | > 100 µM (inactive) | > 100 µM (inactive) | > 100 µM (inactive) | > 100 µM (inactive) | > 100 µM (inactive) | > 100 µM (inactive) | > 100 µM (inactive) | > 100 µM (inactive) | > 100 µM (inactive) | – | > 100 µM (inactive) | > 100 µM (inactive) | > 100 µM (inactive) | > 100 µM (inactive) | > 100 µM (inactive) | > 100 µM (inactive) | > 100 µM (inactive) | > 100 µM (inactive) | > 100 µM (inactive) |
| CC(C)/C(Cl)=N\OC(=O)Nc1ccccc1F | 10 µM (inactive) | 2.55 µM (inactive) | 3.15 µM (inactive) | 17.2 µM (inactive) | 17.3 µM (inactive) | 2.16 µM (inactive) | 16.9 µM (inactive) | 17.7 µM (inactive) | 18.7 µM (inactive) | 18.5 µM (inactive) | 2.82 µM (inactive) | 1.88 µM (inactive) | 14.9 µM (inactive) | 0.741 µM (active) | 15.2 µM (inactive) | 16.6 µM (inactive) | 17.3 µM (inactive) | – | 16.3 µM (inactive) | 17.2 µM (inactive) |
